This is an account of results in patent US20100273650A1, “Fungicidal Mixtures Comprising a Substituted 3-Hydroxymethylpyridine and a Further Fungicidal Compound” (BASF SE, priority 2007, published 2010).

Type in all cases: cell-based
One test deals with Phytophthora infestans. The test can be described thus: microbe, parasite or virus in culture. The conditions noted are these: 168 h, read-out: Observed efficacy.
The test system of the next test is Septoria tritici. The experiment in a line: Activity against leaf blotch on wheat caused by Septoria tritici in the microtiter test (Septtr). The conditions noted are these: single active compound, 405 nm, day 7 after inoculation.
In another test the test system is Pyricularia oryzae. The settings on record: single active compound, 405 nm, 7 days after inoculation.

Like-named read-outs stand apart in the source and are kept apart here.

Regarding `OC(c1cccnc1)c1c(-c2ccc(Cl)cc2)csc1-c1ccc(Cl)cc1` (stereo not drawn) [I.8, 2,4-Bis-(4-chlorophenyl)-3-[(3-pyridyl)hydroxymethyl]thiophene], in the test on Phytophthora infestans, the inhibition of growth at 0.063 ppm amounted to 2%. Also, the inhibition of growth at 0.25 ppm in the test on Phytophthora infestans worked out at 1%. Besides, the inhibition of growth at 1 ppm with Phytophthora infestans amounted to 4%. Besides, the inhibition of growth at 4 ppm in the test with Phytophthora infestans worked out at 19%. The Observed efficacy in the test with Septoria tritici (0.063 ppm) amounted to 4%; with Septoria tritici (0.25 ppm), 10%; in the test with Pyricularia oryzae (0.25 ppm), 2%; with Pyricularia oryzae (1 ppm) it was 0%.

Regarding `N#Cc1c(Cl)c(Cl)c(Cl)c(C#N)c1Cl` [Chlorothalonil, 2,4,5,6-tetrachloroisophthalonitrile], in the test with Phytophthora infestans, the inhibition of growth at 0.25 ppm worked out at 10%.

Take `Cc1ccc(C(C)NC(=O)[C@@H](NC(=O)OC(C)C)C(C)C)cc1` (stereo partly drawn) [Iprovalicarb, isopropyl [(1S)-2-methyl-1-(1-p-tolylethylcarbamoyl)propyl]carbamate]: the inhibition of growth at 1 ppm in the test with Phytophthora infestans came to 66%.

In the case of `O=C1C2CC=CCC2C(=O)N1SC(Cl)(Cl)Cl` (stereo not drawn) [Captan, 2-trichloromethylsulfanyl-3a,4,7,7a-tetrahydroisoindole-1,3-dione], the inhibition of growth at 1 ppm in the test with Phytophthora infestans was 26%.

In the case of `OC(c1cccnc1)c1c(-c2ccc(F)cc2F)csc1-c1ccc(F)cc1F` (stereo not drawn) [I.16, 2,4-Bis-(2,4-Difluorophenyl)-3-[(3-pyridyl)hydroxymethyl]thiophene], the inhibition of growth at 1 ppm with Phytophthora infestans came out at 0%. This compound came in with an Observed efficacy with Pyricularia oryzae (1 ppm) of 0%.

As for `COC(=O)Nc1nc2ccccc2[nH]1` [Carbendazim, methyl (1H-benzoimidazol-2-yl)-carbamate], the Observed efficacy with Pyricularia oryzae (0.25 ppm) is on record as 24%.

Regarding `CC(C)(C)C(O)(CCc1ccc(Cl)cc1)Cn1cncn1` (stereo not drawn) [Tebuconazol, 1-(4-chlorophenyl)-4,4-dimethyl-3-[1,2,4]triazol-1-ylmethylpentan-3-ol], in the test on Septoria tritici (0.25 ppm), the Observed efficacy worked out at 63%.

With “zinc propylenebis(dithiocarbamate) polymer [Propineb]”, the Observed efficacy in the test on Pyricularia oryzae (1 ppm) worked out at 23%.

With `CCCCCCCCc1c(CC)nc2ncnn2c1N` [5-ethyl-6-octyl-[1,2,4]triazolo[1,5-a]pyrimidine-7-ylamine], the inhibition of growth at 0.25 ppm with Phytophthora infestans is 29%.

`OC(Cc1ccccc1Cl)(Cn1nc[nH]c1=S)C1(Cl)CC1` (stereo not drawn) [Prothioconazole, 2-[2-(1-chlorocyclopropyl)-3-(2-chlorophenyl)-2-hydroxypropyl]-2,4-dihydro-[1,2,4]triazole-3-thione]: the inhibition of growth at 16 ppm in the test on Phytophthora infestans came out at 22%.

`CC(Cc1ccc(C(C)(C)C)cc1)CN1C[C@@H](C)O[C@@H](C)C1` (mixture of isomers) [Fenpropimorph, (RS)-cis-4-[3-(4-tert-butylphenyl)-2-methylpropyl]-2,6-dimethylmorpholine] gave an Observed efficacy with Septoria tritici (1 ppm) of 9%.

Regarding `CNC(=O)/C(=N/OC)c1ccccc1COc1cc(C)ccc1C` [Dimoxystrobin, (E)-2-(methoxyimino)-N-methyl-2-[α-(2,5-xylyloxy)-o-tolyl]acetamide], in the test with Phytophthora infestans, the inhibition of growth at 0.25 ppm turned out to be 42%.

`CCCCCCCCCCCCCN1CC(C)OC(C)C1` (stereo not drawn) [Tridemorph, 2,6-dimethyl-4-tridecylmorpholine] displayed an Observed efficacy with Septoria tritici (1 ppm) of 3%.
